Measured values published in patent EP0671413A1, “Somatostatin analogs for preventing NSAID-induced ulcers” (SANDOZ LTD, priority 1994, dated 1995).

Experiment: Tolerability after i.p. injection
Type: in vivo
Details: i.p. injection at 100 mg/kg animal body
Description: Compounds of formula I are well tolerated at dosages required for use in accordance with the present invention.

SMILES: C[C@@H](O)[C@@H]1NC(=O)[C@H](CCCCN)NC(=O)[C@@H](Cc2c[nH]c3ccccc23)NC(=O)[C@H](Cc2ccccc2)NC(=O)[C@@H](NC(=O)[C@H](N)Cc2ccccc2)CSSC[C@@H](C(=O)N[C@H](CO)[C@@H](C)O)NC1=O [octreotide]
- increase in GOT: no increase in GOT
- lethality: no increase in GOT or any lethality
